Active and inactive are the calls of the source. How the calls were made is not given here.
Biological target: Influenza A virus M2 proton channel (A/TW/4845/1999 H1N1)
Experiment: NMR binding screen, influenza A virus M2 proton channel, Kd (AID 1549)
Details: M2 protein

SMILES	Kd
CCN1CCN(c2ncnc3c2nnn3C)CC1	> 4 mM (inactive)
O=C(NCc1cccnc1)c1ccccn1	> 4 mM (inactive)
CC(C)=CCCC1(C)C=Cc2c(O)c3c(c(CC=C(C)C)c2O1)OC12C(=CC4CC1C(C)(C)OC2(C/C=C(/C)C(=O)O)C4O)C3=O (centres undefined)	> 4 mM (inactive)
COc1c(C)c2c(c(O)c1C/C=C(\C)CCC(=O)O)C(=O)OC2	> 4 mM (inactive)
COC(=O)c1c(SC)nc(-c2ccccc2)[nH]c1=O	> 4 mM (inactive)
O=C1N=c2ccccc2=C1c1sc(=S)[nH]c1O	> 4 mM (inactive)
O=C(NC1=NCCS1)c1csc2ccccc12	> 4 mM (inactive)
CC(=O)Nc1cccc(N2C(=O)CCC2=O)c1	> 4 mM (inactive)
COc1ccc(NC(=O)/C=N/O)cc1	> 4 mM (inactive)
NC(=O)CSc1nnc(-c2ccncc2)o1	> 4 mM (inactive)
O=c1cccc2n1CC1CC2CN2CCCC[C@@H]12 (some centres undefined)	> 4 mM (inactive)
Nc1ccc2nsnc2c1	> 4 mM (inactive)
O=C(Nc1ccon1)c1cccc(Cl)c1	> 4 mM (inactive)
O=C(O)C1CCCN1Cc1c[nH]c2ccccc12 (centres undefined)	> 4 mM (inactive)
CCC(/C=C/[C@@H](C)[C@H]1CCC2C3CC=C4C[C@@H](O)CC[C@]4(C)C3CC[C@@]21C)C(C)C (some centres undefined)	> 4 mM (inactive)
Cc1nc2ccccc2c(=O)n1N1C(=O)CCCC1=O	> 4 mM (inactive)
CC1CCN(C(=S)c2ccccc2O)CC1	> 4 mM (inactive)
C[C@H]1[C@H](C)CC[C@]2(C(=O)O)CC[C@]3(C)C(=CCC4[C@@]5(C)C[C@@H](O)[C@H](O)[C@@](C)(CO)C5[C@H](O)C[C@]43C)[C@H]12 (some centres undefined)	> 4 mM (inactive)
NC(=O)Cc1nc(-c2ccccc2)cs1	> 4 mM (inactive)
CS(=O)(=O)c1ccc2nc(N)sc2c1	> 4 mM (inactive)
S=C(Cc1cccnc1)N1CCOCC1	> 4 mM (inactive)
O=C1Cn2c(nc3ccccc32)N1c1ccccc1F	> 4 mM (inactive)
CC(C)=CCC/C(C)=C/CC/C(C)=C/CC/C(C)=C/CC/C(C)=C/CC/C(C)=C/CC/C(C)=C/CC/C(C)=C/CC/C(C)=C/CO	> 4 mM (inactive)

SMILES	Kd
NC(=O)CCn1c(=O)oc2ccccc21	> 4 mM (inactive)
O=S1(=O)C=CC(N2CCCCC2)C1 (centres undefined)	> 4 mM (inactive)
NCC(O)c1ccc(O)cc1 (centres undefined)	> 4 mM (inactive)
O=S(=O)(N1CCCCC1)n1nnc2ccccc21	> 4 mM (inactive)
C[C@@H]1CC[C@@]2(NC1)O[C@H]1C[C@H]3C4CC=C5C[C@@H](O)CC[C@]5(C)C4CC[C@]3(C)C1[C@@H]2C (some centres undefined)	> 4 mM (inactive)
O=C(c1ccc(N2CCNCC2)cc1)c1cccnc1	> 4 mM (inactive)
CNC(=S)Nc1ncn(Cc2cccc(F)c2)n1	> 4 mM (inactive)
O=C(Nc1ccc2c(c1)CCC2)c1cnccn1	> 4 mM (inactive)
CC12OC(=O)CC3C(C)(C)[C@H](O)C=C[C@]3(C)C1CC[C@]1(C)C2=CC(=O)O[C@H]1c1ccoc1 (some centres undefined)	> 4 mM (inactive)
Cc1ccc(C(O)c2nccn2C)o1 (centres undefined)	> 4 mM (inactive)
NC(=O)C1CCN(c2nccc(C(F)(F)F)n2)CC1	> 4 mM (inactive)
C=C1C[C@]23C[C@@]1(O)CC[C@H]2[C@@]12C=C[C@H](O)C(C)(C(=O)O1)[C@H]2[C@@H]3C(=O)O	> 4 mM (inactive)
O=C(O)CSc1nc2ccccc2c(=O)[nH]1	> 4 mM (inactive)
Cc1ccc2c(c1)=C(c1sc(N)nc1O)C(=O)N=2	> 4 mM (inactive)
O=C1NC(=S)NC(=O)C1=Cc1ccco1	> 4 mM (inactive)
Cn1c(SCC(N)=O)nc2ccccc2c1=O	> 4 mM (inactive)
OCc1ccc2c(c1)CCO2	> 4 mM (inactive)
C=CC(C1=CC(=O)C=CC1=O)c1ccccc1 (centres undefined)	> 4 mM (inactive)
COC(=O)c1cncc(C(=O)OC)c1	> 4 mM (inactive)
Cc1cc(C)n2c(SCc3cccs3)nnc2n1	> 4 mM (inactive)
CC1CCN(C(=O)c2ccc(NS(C)(=O)=O)cc2)CC1	> 4 mM (inactive)
COc1ccc(C)cc1S(=O)(=O)Nc1ccccc1C	> 4 mM (inactive)
O=C(O)c1cc2ccccc2[nH]1	> 4 mM (inactive)

SMILES	Kd
Cc1sc2nc(SCC(=O)N(C)C)[nH]c(=O)c2c1C	> 4 mM (inactive)
Nc1nc(-c2ccc(F)c(F)c2)cs1	> 4 mM (inactive)
CC(C)=CCc1c(O)cc2occ(-c3ccc4c(c3)OCO4)c(=O)c2c1O	> 4 mM (inactive)
COc1ccc([C@@H](C)C(=O)c2ccc(O)cc2O)cc1	> 4 mM (inactive)
O=P1(O)c2ccccc2Nc2ccccc21	> 4 mM (inactive)
O=C(O)CSCC(=O)Nc1cccc(O)c1	> 4 mM (inactive)
Cc1occc1C(=O)Nc1ccc(C(N)=O)cc1	> 4 mM (inactive)
CCOC(=O)C1CN(C)CCN1C (centres undefined)	> 4 mM (inactive)
O=C1CCC(c2cccs2)=NN1	> 4 mM (inactive)
Cc1ccc(NC(=O)C2CCCNC2=O)nc1 (centres undefined)	> 4 mM (inactive)
OCC1Cc2ccccc2CN1 (centres undefined)	> 4 mM (inactive)
O=C(O)C1C(=O)NCC1c1ccccc1 (centres undefined)	> 4 mM (inactive)
NS(=O)(=O)c1ccc(NC(=O)C2CC2)cc1	> 4 mM (inactive)
NS(=O)(=O)c1ccc(N=Cc2ccc[nH]2)cc1	> 4 mM (inactive)
O=c1ccc2nc3ccccc3c(=O)n2[nH]1	> 4 mM (inactive)
O=C(Nc1ccon1)c1ccc(Br)o1	> 4 mM (inactive)
CC(C)=CCc1c2c(c(O)c3c(=O)c(O)c(-c4ccccc4)oc13)C=CC(C)(C)O2	> 4 mM (inactive)
O=C(O)C1CC(=O)N(Cc2ccco2)C1 (centres undefined)	> 4 mM (inactive)
Nc1ccccc1-c1nc2ccccc2[nH]1	> 4 mM (inactive)
COC1=CC(C)[C@@H]2C[C@H]3OC(=O)C[C@H]4C(C)=C(OC)C(=O)C([C@@]34C)[C@@]2(C)C1=O (some centres undefined)	> 4 mM (inactive)
NC(=O)CN1CC(c2ccccc2)CC1=O (centres undefined)	> 4 mM (inactive)
Nc1ccnc(C(=O)O)c1	> 4 mM (inactive)
Cc1ccc(Nc2nnns2)cc1C	> 4 mM (inactive)

SMILES	Kd
Nc1ccc(Cl)nn1	> 4 mM (inactive)
O=c1cc(O)n(-c2ccc(F)cc2)c(=S)[nH]1	> 4 mM (inactive)
COc1ccc([C@H]2COc3c(ccc(O)c3OC)C2)c(OC)c1O	> 4 mM (inactive)
CCN1CC2(C)CC[C@H](OC)[C@]34C2[C@H](O)C2(OCO[C@@]25C[C@H](OC)[C@H]2C[C@]3(O)C5[C@H]2O)C14	> 4 mM (inactive)
COc1cc2c(c(OC)c1OC)-c1ccc(O)c(=O)cc1[C@@H](NC(C)=O)CC2	> 4 mM (inactive)
COc1ccc(CC(=O)c2ccc(O)cc2O)cc1	> 4 mM (inactive)
C=CCc1ccc(O)c(OC)c1	> 4 mM (inactive)
Cc1noc(C)c1C(=O)NCc1ccco1	> 4 mM (inactive)
O=C(Cc1c(F)cccc1Cl)Nc1ccon1	> 4 mM (inactive)
Cc1c(-c2ccccc2)[n+](=O)c(-c2ccco2)c(C)n1[O-]	> 4 mM (inactive)
CC(C)(C)C(=O)N1CCCC1C(=O)O (centres undefined)	> 4 mM (inactive)
COc1ccccc1-c1c(C)nn2c(C)c(C(C)=O)cnc12	> 4 mM (inactive)
NC(=O)C1CCN(CC2CC=CCC2)CC1 (centres undefined)	> 4 mM (inactive)
CC1(C)Cc2c(C#N)c(N)n(-c3ccccc3)c(=O)c2CO1	> 4 mM (inactive)
NC1=NCc2ccccc21	> 4 mM (inactive)
O=C(c1ccc(F)cc1)N1CCOCC1	> 4 mM (inactive)
COc1cc([C@@H]2c3cc4c(cc3[C@H](OC(C)=O)[C@H]3COC(=O)[C@H]23)OCO4)cc(OC)c1OC	> 4 mM (inactive)
CC1(C)CC23C(=O)CCC(O)C2(C)CCC13 (centres undefined)	> 4 mM (inactive)
O=c1cc(-c2ccccc2)oc2cc(O)c(O)c(O)c12	> 4 mM (inactive)
CC(=O)Oc1c(C)cc(O)c2ccccc12	> 4 mM (inactive)
O=C(O)c1ccc2occc2c1	> 4 mM (inactive)
Cc1n[nH]c(C)c1-c1ccccc1C(=O)O	> 4 mM (inactive)
CC(C)(C)c1cc(NC(=O)c2cccnc2)no1	> 4 mM (inactive)

SMILES	Kd
Nc1nnc(SCc2ccccc2Cl)s1	> 4 mM (inactive)
NC(C(=O)O)C(O)c1ccccc1 (centres undefined)	> 4 mM (inactive)
O=c1ccc(=O)n(CN2CCc3ccccc3C2)[nH]1	> 4 mM (inactive)
COc1ccc(-c2cc(=O)c3ccccc3o2)cc1OC	> 4 mM (inactive)
Cc1ccc(SCc2cc(=O)n3[nH]cnc3n2)cc1	> 4 mM (inactive)
Cc1cc(=O)[nH]c(N2CCCCC2)n1	> 4 mM (inactive)
C[C@@H]1CC[C@@]2(OC1)O[C@H]1CC3C4CC[C@H]5C[C@@H](O)CC[C@]5(C)C4CC[C@]3(C)[C@H]1[C@@H]2C (some centres undefined)	> 4 mM (inactive)
c1ccc(Cc2nn3c(-c4ccncc4)nnc3s2)cc1	> 4 mM (inactive)
O=S(=O)(Cc1ccccc1)N1CCCCCC1	> 4 mM (inactive)
CC(C)CCCC(C)[C@H]1CCC2C3CC[C@H]4CC(=O)CC[C@]4(C)C3CC[C@@]21C (some centres undefined)	> 4 mM (inactive)
Cc1cc(C)nc(NC(N)=NCc2ccco2)n1	> 4 mM (inactive)
Nc1ccc(Cc2ccc(N)cc2)cc1	> 4 mM (inactive)
Cc1ccc(C(=O)N2CCC(C(N)=O)CC2)c(Cl)c1	> 4 mM (inactive)
O=C(O)CCC(=O)NCc1cccnc1	> 4 mM (inactive)
CC1O[C@@H](Oc2c(-c3ccc(O)c(O)c3)oc3cc(O)cc(O)c3c2=O)[C@H](O)[C@H](O)[C@H]1O (some centres undefined)	> 4 mM (inactive)
CC1(C)C2CC[C@]3(C)C(C(=O)C=C4[C@@H]5C[C@@](C)(C(=O)O)CC[C@]5(C)CC[C@]43C)[C@@]2(C)CC[C@@H]1O (some centres undefined)	> 4 mM (inactive)
O=C(NC1CC1)c1ccccc1[N+](=O)[O-]	> 4 mM (inactive)
COC(=O)c1sc(N)nc1C	> 4 mM (inactive)
O=C(CCc1ccc(O)cc1)c1c(O)cc(O)cc1O	> 4 mM (inactive)
Cc1cc(NC(=O)c2ccc3c(c2)OCCO3)no1	> 4 mM (inactive)
OCc1csc(-c2cccs2)n1	> 4 mM (inactive)
OCc1ccc2c(c1)OCCO2	> 4 mM (inactive)
